Assay results as given in patent publication US5185352A, “Alkoxy-4(1H)-pyridone derivatives, processes for the preparation thereof and pharmaceutical compositions containing them” (Goedecke Aktiengesellschaft, priority 1988, dated 1993).
Counter-ions that a name gives are not always drawn. Like-named read-outs stand apart in the source and are kept apart here.

Key:
[1] = test system: Noradrenaline-Precontracted Aorta; assay: Endothelium-dependent smooth muscle relaxation of noradrenaline-precontracted rabbit aorta rings in an organ bath; settings: Oryctolagus cuniculus, noradrenaline 3 × 10^-7 mol/L
Description: Rabbit aorta rings are fixed in an organ bath filled with physiological salt solution (Krebs-Henseleit) between L-shaped wires. The solution is gassed with carbogen. Contractions are initiated by 3×10^-7 noradrenaline. When the tension has reached a stable plateau, compounds of the instant invention are added. The effect of the compounds first is tested on organ preparation with functioning endothelium. In an additional experiment in order to test whether the relaxation is endothelium-dependent the compounds are tested with aorta rings with damaged endothelium. For an endothelium-dependent relaxation, effected by the endothelium-derived relaxating factor (EDRF), the following characteristics are required: absence of the effect in preparations with damaged endothelium, no inhibition of the relaxation by indomethazine and inhibition of the relaxation by NDGA (nordihydro-guaiaretic acid), methylene blue and gossypol. These criteria are completely met by the compounds listed in Table II, and one can conclude, that the compounds of the instant invention act in an unexpected manner by the release of EDRF, and thereby relax vascular smooth muscle.

[2] = biological target: calcium- and phospholipid-dependent protein kinase (PKC); assay: Inhibition of the activity of protein kinase C (incorporation of P^32-labelled phosphate into histone H-1); type: biochemical; settings: PKC enriched from rat brain; histone H-1 substrate; 5 min, 30° C.; pH 7.5
Text: For the clarification of the inhibiting influence of compounds of formula I according to the present invention on the calcium- and phospholipid-dependent protein kinase (PKC), this enzyme activity was enriched from rat brain. Using the purification steps described in the literature (J. Biol. Chem., 260, 15718-15722/1985), in the case of a purification consisting of two steps, there was utilized the property of the enzyme to bind to cell membranes in the presence of calcium and to be dissolved off again by calcium chelators (EGTA). In the first enrichment step, there took place the binding of the PKC to membranes of the rat brain and in the second step on so-called inside-out vesicles or erythrocytes. After dissolving off from the erythrocyte membranes and rebuffering, the PKC preparation was present in 10 mM HEPES, 1 mM DTT, 0.1% PEG 20000, pH 7.5. Under these conditions, it could be stored at -70° C. for several months without loss of activity.
The activity of the enzyme was determined via the incorporation of P^32 -labelled phosphate into the protein histone H-1 (Sigma Type III) which can be phosphorylated by PKC.
The test thereby contains the following components: 50 mM HEPES-NaOH (pH 7.5), 5 mM magnesium chloride, 1 mM DTT, 4 μm. free calcium ions, 10 μMaTP, 1 μg phosphatidylserine, 0.2 μg 1,2-diolein, as well as 40 μg histone H-1 and optionally the test substance.
The batch is preincubated for 4 minutes at 30° C. and the reaction then started by the addition of 5 nM PKC. After incubating for 5 minutes at 30° C., the reaction is stopped with 10% TCA and the samples then filtered off. The phosphate incorporation is determined by Cerenkov counting in a scintillation counter. The kinase activity measured in the absence of the test substance was, in each case, taken as being 100% and the inhibiting action of the compounds of formula I referred thereto as percentages.

[3] = damaged endothelium, read-out: Relaxation of Noradrenaline-Precontracted Aorta, EC50, Damaged Endothelium
[4] = functioning endothelium, read-out: Relaxation of Noradrenaline-Precontracted Aorta, EC50, Functioning Endothelium

| SMILES | EC50 [1, 4] [nM] | IC50 [2] [nM] | EC50 [1, 3] [nM] |
| --- | --- | --- | --- |
| CC(=O)OCC[N+](C)(C)C [Acetylcholine, reference compound] | 30 |  | > 100000 |
| CCCCCCCCCCCCCCCCCCOc1cn(Cc2ccccc2)c(CN2CCC(CN)(c3ccccc3)CC2)cc1=O [Example 101, 1-[(1-Benzyl-5-octadecyloxy-4(1H)-pyridon-2-yl)methyl]-4-aminomethyl-4-phenylpiperidine trihydrochloride] | 20000 | 1500 | > 100000 |
| CCCCCCCCCCCCCCCCCCOc1cn(Cc2ccccc2)c(CN2CCN(Cc3ccccc3)CC2)cc1=O [Example 88, 1-[(1-Benzyl-5-octadecyloxy-4(1H)-pyridon-2-yl)methyl]-4-benzylpiperazine] | 3400 | 3000 | > 100000 |
| CCCCCCCCCCCCCCCCCCOc1cn(C)c(CNCCCN(C)C)cc1=O [Example 56, 2-[N-(3-Dimethlaminopropyl)-aminomethyl]-1-methyl-5-octadecyloxy-4(1H)-pyridone trihydrochloride hemihydrate] |  | 2900 |  |
| CCCCCCCCCCCCCCCCCCOc1cn(Cc2ccccc2)c(COCCCN(C)C)cc1=O [Example 103, 1-Benzyl-2-(3-dimethylaminopropoxymethyl)-5-octadecyloxy-4(1H)-pyridone dihydrochloride] |  | 4000 |  |
| CCCCCCCCCCCCCCCCCCOc1cn(Cc2ccccc2)c(CN2CCN(CCc3ccccc3)CC2)cc1=O [Example 94, 1-[(1-Benzyl-5-octadecyloxy-4(1H)-pyridone-2-yl)methyl]-4-(2-phenylethyl)piperazine·trihydrochloride·1/2 H2 O] |  | 2400 |  |

The remaining molecules from weak to strong by IC50 [2], led by results:

| EC50 [1, 4] [nM] | IC50 [2] [nM] | SMILES | EC50 [1, 3] [nM] |
| --- | --- | --- | --- |
|  | 2400 | CCCCCCCCCCCCCCCCCCOc1cn(Cc2ccc(C)cc2)c(COCCCN(C)C)cc1=O [Example 106, 2-(3-Dimethylaminopropoxymethyl)-1-(4-methylbenzyl)-5-octadecyloxy-4(1H)-pyridone dihydrochloride sesquihydrate] |  |
|  | 2200 | CCCCCCCCCCCCCCCCCCOc1cn(-c2ccccc2)c(CNCCCN(C)C)cc1=O [Example 70, 2-[N-(3-Dimethylaminopropyl)aminomethyl]-5-octadecyloxy-1-phenyl-4(1H)-pyridone] |  |
|  | 1900 | CCCCCCCCCCCCCCCCCCOc1cn(Cc2ccc(C)cc2)c(CNCCCN(C)C)cc1=O [Example 76, 2-[N-(3-Dimethylaminopropyl)aminomethyl]-1-(4-methylbenzyl)-5-octadecyloxy-4(1H)-pyridone trihydrochloride hemihydrate] |  |
| 3000 | 1800 | CCCCCCCCCCCCCCCCCCOc1cn(Cc2ccccc2)c(CNCCCN(C)Cc2ccccc2)cc1=O [Example 71, 1-Benzyl-2-[N-(3-N-benzyl-N-methylaminopropyl)aminomethyl]-5-octadecyloxy-4(1H)-pyridone difumarate] | > 100000 |
| 30000 | 1500 | CCCCCCCCCCCCCCCCCCOc1cn(Cc2ccc(Cl)cc2)c(CNCCCN(C)C)cc1=O [Example 69, 1-(4-Chlorobenzyl)-2-[N-(3-dimethylamino-propyl)aminomethyl]-5-octadecyloxy-4(1H)-pyridone difumarate 1.25 hydrate] | > 100000 |
| 15000 | 1400 | CCCCCCCCCCCCCCCCCCOc1cn(Cc2ccccc2)c(CNCCCN(C)C)cc1=O [Example 54, 1-Benzyl-2-[N-(3-dimethylaminopropyl)-aminomethyl]-5-octadecyloxy-4(1H)-pyridone dioxalate] | > 100000 |
